Two molecules from patent publication US20160038485A1, “PHASE 2 INDUCERS AND RELATED SIGNALING PATHWAYS PROTECT CARTILAGE AGAINST INFLAMMATION, APOPTOSIS AND STRESS” (THE JOHNS HOPKINS UNIVERSITY, priority 2006, published 2016) can be followed below.

What all share (assay type): cell-based, human
One assay relates to NQO1. Put plainly: NQO1 enzyme activity in shear-activated chondrocytes. Conditions: T/C28a2, high shear (20 dyn/cm^2); SFN 1.25 μM, D3T 5 μM, CAY10404 6.75 μM, NS398 30 μM. As for the experimental part:
(§1) Cell Culture and Shear Stress Exposure: Human T/C28a2 chondrocytic cells were grown (37° C., 5% CO2) in 1:1 Ham's F-12/DMEM (Biowhittaker) supplemented with 10% FBS. Prior to shear exposure, T/C28a2 cells were incubated for 24 hours in serum-free medium containing 1% Nutridoma-SP (Roche), a low-protein serum replacement that maintains chondrocyte phenotype. Primary HUVECs were cultured as described (Goldring, M. B., 2004). T/C28a2 cells were exposed to shear stress in media containing 1% Nutridoma by use of a parallel-plate flow chamber with a recirculating flow loop (37° C., 5% CO2) (10). HUVECs were treated similarly by circulating media supplemented with 10% FBS.
(§2) Cell Viability, NQO1 activity, Glutathione levels, and Prostaglandin (PG)E2 production: Cell viability was monitored with the MTT assay (Gao, X. et al. 2001). NQO1 activity and total GSH (oxidized and reduced) levels of cell lysates were determined in 96-well microtiter plates. PGE2 levels were determined in media by the Prostaglandin E2 monoclonal EIA kit (Cayman Chemical).

For assay [1], the system named is T/C28a2 cells. Briefly: Shear-induced apoptosis: DNA fragmentation (TUNEL) and mitochondrial membrane depolarization. To be noted: 20 dyn/cm^2, 48 h; D3T 5 μM, CAY10404 6.75 μM, NS398 30 μM. The procedure: as §1
DNA Fragmentation and Mitochondrial Depolarization: For DNA fragmentation, cells were fixed in 4% paraformaldehyde for 1 hour at 25° C., washed 2× in PBS, and permeabilized briefly in 0.1% Triton-X100/0.1% sodium citrate on ice. Subsequently, cells were washed 2× in PBS, labeled using the In Situ Cell Death Kit (Roche), and analyzed by flow cytometry. To quantify Mitochondrial Membrane Potential (MMP), cells were labeled using the MitoProbe JC-I Kit (Molecular Probes).

In assay [2] the test system is T/C28a2 chondrocytic cells. Put plainly: DNA microarray analysis of shear-induced mRNA response of chondrocytes. The arrangement: COX-1 (cyclooxygenase-1) microarray intensity ratio (shear/static): dose or concentration left out as unconfirmed. Conditions: 20 dyn/cm2, 48 hr, mean ± SD. As for the experimental part:
as §1
Microarray Hybridization and Analysis: Cy-3- and Cy-5-labeled probes were mixed, dried, resuspended in hybridization buffer (50% formamide, 10×SSC, 0.2% SDS, COT-I DNA, Poly(A)-DNA), and denatured. The probes were added to microarray slides printed with a set of 32,448 or 39,936 expressed sequence tags (ESTs), allowed to hybridize at 42° C. overnight, and processed as described (Abulencia, J. P., et al. 2003. Hegde, P. et al. 2000). Expression ratios were derived using TIGR Spotfinder (Abulencia, J. P. et al. 2003, Hegde, P. et al. 2000). Differentially expressed genes were identified by Significance Analysis of Microarrays, and analyzed with the software TMEV (Abulencia, J. P. et al. 2003).
Quantitative Real-Time PCR (qRT-PCR) was used to verify DNA microarray data. Incorporation of SYBR Green into PCR products was monitored with the 7900HT detection system.

The next assay concerns COX-2. Put plainly: Intracellular COX-2 protein staining, flow cytometry. Conditions: D3T 5 μM; 20 dyn/cm^2, 48 hours. As for the experimental part:
as §1
(§3) Intracellular Protein Staining and Western Blots: T/C28a2 cells were fixed in 1.0% formaldehyde for 10 min at 37° C., permeabilized in 90% methanol for 20 minutes on ice, and incubated at 25° C. for 10 min in blocking buffer (0.5% BSA). Specimens were then incubated with fluorophore-conjugated monoclonal antibodies specific for COX-I (COX-1/FITC) and COX-2 (COX-2/PE) (Cayman Chemical) or isotype controls (BD Biosciences) for 30 min, washed 2× in blocking buffer, and analyzed by flow cytometry. For Western blots, total cell lysates were subjected to SDS/PAGE, transferred to a membrane, and probed with caspase-9 and β-actin antibodies (Upstate).
(A flow cytometer gives signals particle by particle.)

Assay [3] has as its system T/C28a2 cells. Put plainly: Shear-induced PGE2 production (EIA of culture media). Conditions: D3T 5 μM; fluid shear 48 hours. As for the experimental part: as §1, §2
For a further assay, the system named is ARE-driven NQO1 promoter. Put plainly: Promoter activity assay (pNQO1/ARE-luc). Conditions: transfected T/C28a2 cells; SFN 1.25 μM or D3T 5 μM, 24 h, static conditions. As for the experimental part: Transient Transfection and Plasmid Constructs: T/C28a2 cells were transfected with 10 μg of plasmid and 2 μg of control with Lipofectamine and Plus Reagent (Invitrogen). Cells were allowed to recover for 3 hours, incubated overnight in medium containing 1% Nutridoma, and exposed to the indicated treatments. Efficiency was assessed by flow cytometry with pEGFP-N2 (BD Biosciences). pCMV-mNrf2 and pNQO1/ARE-luc constructs were provided by N. Wakabayashi (Wakabayashi, N. et al. 2004). Igarashi, K., et al. 1994), and pBJ M-pl 10*-myc, pBJ M<<pl 10-UR, and pCG pi 10 wt constructs were provided by A. Kippel (Hu, Q., et al. 1995).
Promoter Activity Assay: T/C28a2 cells were transfected with 10 μg of pNQO1/ARE-luc and 1 μg each of pEGFP-N2 and pSV40-hRL2 (Promega) to normalize transfection efficiency. Firefly and Renilla luciferase activities were measured using the Dual-Luciferase Report Assay kit (Promega).

The test system of the next assay is caspase-9. Briefly: Caspase-9 immunoblot analysis. To be noted: high shear 20 dyn/cm^2. As for the experimental part: as §1, §3
On the technique in general: A western blot detects proteins with antibodies after separation by electrophoresis.

The next assay relates to COX-I. Briefly: Intracellular COX-1 protein staining, flow cytometry. To be noted: D3T 5 μM; static or laminar shear 5 or 20 dyn/cm^2, 48 hours. As for the experimental part: as §1, §3
Assay [4] deals with T/C28a2 cells. Briefly: Total glutathione (GSH) levels in shear-activated chondrocytes. To be noted: T/C28a2, high shear (20 dyn/cm^2); SFN 1.25 μM, CAY10404 6.75 μM, NS398 30 μM. The procedure: as §1, §2
The mark [5] stands for this setting: 5 μM D3T (shear) vs 0.1% DMSO (static).

Each structure is given as a SMILES string.

On to `S=c1ccss1` [D3T, 1,2-dithiole-3-thione], for which the “shear-induced suppression of NQO1 activity” value in the assay with NQO1 is recorded as “likewise effective in suppressing the shear-mediated reduction of phase 2 enzyme activity”. Further, the “shear-induced apoptosis (DNA fragmentation TUNEL, mitochondrial membrane depolarization MMP)” value with T/C28a2 cells [1] is “essentially abrogated”. Also, in [2] (setting [5]), the “COX-2 (cyclooxygenase-2) microarray intensity ratio (shear/static)” value came to 1.3 ± 0.2, the “Caspase-9 precursor microarray intensity ratio (shear/static)” value worked out at 0.8 ± 0.1, the “GCLR (γ-glutamylcysteine ligase) microarray intensity ratio (shear/static)” value is 1.6 ± 0.1 and the “GST μ1 (glutathione S-transferase) microarray intensity ratio (shear/static)” value is recorded as 1.6 ± 0.1. In assay [2] (setting [5]), the “Glutathione reductase microarray intensity ratio (shear/static)” value was 2.8 ± 0.1, the “HO-1 (Heme Oxygenase-1) microarray intensity ratio (shear/static)” value came to 1.2 ± 0.1, the “HO-2 (Heme Oxygenase-2) microarray intensity ratio (shear/static)” value amounted to 0.9 ± 0.1 and the “JNK2 (c-jun N-terminal kinase 2) microarray intensity ratio (shear/static)” value is given as 1.6 ± 0.1. Also, in [2] (setting [5]), the “NQO1 (NAD(P)H:quinone reductase-1) microarray intensity ratio (shear/static)” value is reported as 1.3 ± 0.1, the “Nrf2 (NF-E2 related factor 2) microarray intensity ratio (shear/static)” value is listed as 1.3 ± 0.1, the “PI3K (phosphoinositol kinase 3) microarray intensity ratio (shear/static)” value was determined as 0.8 ± 0.2 and the “Transcription Factor AP-1 (c-jun) microarray intensity ratio (shear/static)” value amounted to 1.4 ± 0.1. Further, in [2] (setting [5]), the “UDP-glucuronosyltransferase microarray intensity ratio (shear/static)” value is reported as 1.0 ± 0.1. Besides, the “COX-1 (cyclooxygenase-1) microarray intensity ratio (shear/static)” value in assay [2] was determined as 1.3 ± 0.1. In the assay on COX-2, the “COX-2 protein expression in chondrocytes subjected to high shear” value is recorded as “nearly abrogated”. Besides, the “PGE2 production in chondrocytes subjected to high shear” value with T/C28a2 cells [3] was “nearly abrogated”. In addition, the “ARE-driven NQO1 promoter luciferase activity” value in the assay on ARE-driven NQO1 promoter is “increases the luciferase activity”. Further, the “expression of proform (46 kDa) and active form (34 kDa) of caspase-9” value with caspase-9 is on record as “substantially reduced expression”. In the assay on COX-I, the COX-I expression result is reported as “remains unchanged”.
`C[S@@+]([O-])CCCCN=C=S` [SFN, (−)-1-isothiocyanato-4(R)-(methylsulfinyl)-butane]: the “shear-induced suppression of intracellular GSH levels” value in the assay with T/C28a2 cells [4] is recorded as “abolished”. Further, in the assay on NQO1, the “shear-induced suppression of NQO1 activity” value is given as “abolished”. Besides, the “ARE-driven NQO1 promoter luciferase activity” value in the assay with ARE-driven NQO1 promoter was “increases the luciferase activity”.
